Several values for one entry are separate records, joined by “and”; a condition that tells them apart may be missing. Identical values can stand only once.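 Test compounds were applied to cells in 96-well plates for 48 hours at 5 doses. GI50 marks 50% less growth. Definition used: TGI = concentration required for complete inhibition of growth.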

In the assay the test system is MDA-MB-468 breast. Briefly: NCI anticancer screen, dose series, 48 h.
As to `C[C@H](Nc1cc(Cl)nc2c1cnn2[C@@H]1O[C@H](COP(=O)(O)CP(=O)(O)O)[C@@H](O)[C@H]1O)c1ccccc1F`, the GI50 is above 100 µM and the TGI was above 100 µM.

For `COc1cc(/C=C\c2cc(OC)c(OC)c(OC)c2)cc(N/C=C\C(=O)c2cc(OC)c(OC)c(OC)c2)c1OC`, the GI50 was 1.88 µM and the TGI was determined as 6.34 µM.

`CN(C)C/C=C/C(=O)Nc1cc2c(Nc3ccc(F)c(Cl)c3)ncnc2cc1O[C@H]1CCOC1`: the GI50 was < 0.01 µM and 0.00112 µM; the TGI is 0.01 µM and 0.0067 µM.

With `COc1ccc(-c2cc(/C=C/C(=O)c3ccc(OC)c(OC)c3)[nH]n2)cc1`, the GI50 was 1.22 µM and the TGI stood at 2.94 µM.

Regarding `Nc1ncc(-c2ccc3ncnc(N4CCc5cc(F)c(Cl)cc54)c3c2)cc1CO`, the GI50 was 0.236 µM and the TGI was determined as 0.933 µM.

Take `O=[N+]([O-])c1cccc2ccc(N/N=C/c3ccccc3O)nc12`: the GI50 was 0.676 µM and the TGI is above 100 µM.

Regarding `COc1ccccc1Nc1ncc(-c2ccccc2)o1`, the GI50 was 3.02 µM and the TGI is above 25 µM.

With `O=[N+]([O-])c1ccc(CI)cc1`, the GI50 is 1.71 µM and the TGI turned out to be 4.09 µM.

Consider `COc1cc(C2CC(c3cccc(Nc4ccncc4)c3)=NN2c2ccc(Cl)cc2)cc(OC)c1OC` (stereo not drawn), for which the GI50 is 1.63 µM and the TGI was 3.45 µM.

For `COc1ccc(-c2nnc(N3CCN(C(=O)CN4CCN(c5ccccc5)CC4)CC3)nc2-c2ccc(OC)cc2)cc1`, the GI50 was 8.31 µM and the TGI is above 100 µM.

With `C=COC(=O)N[C@H]1CCc2cc(OC)c(OC)c(OC)c2-c2ccc(SC)c(=O)cc21`, the GI50 was below 0.01 µM and the TGI is above 100 µM.

Consider `CC(C(=O)O)c1cccc(Oc2ccccc2)c1` (stereo not drawn), for which the GI50 was above 100 µM and the TGI was above 100 µM.

`Nc1c(C(=O)c2ccccc2)cnn1-c1ccc(F)cc1`: the GI50 was above 25 µM and the TGI is above 25 µM.

As to `O=C1c2cccc3cccc(c23)C(=O)N1CCCCCN1CCN(CCCCCOc2ccc(-c3nc4ccc(N5CCOCC5)cc4[nH]3)cc2)CC1`, the GI50 was 20.3 µM and the TGI was determined as 34.6 µM.

Take `O=C1c2cc3c(cc2-c2c1c1cc(Cl)c(Cl)cc1c(=O)n2C[C@H](O)CO)OCO3`: the GI50 is below 0.01 µM and the TGI was 0.0305 µM.

As for `CC1(C)N=C(N)N=C(N)N1c1ccc(CCCCc2ccc(Cl)c(S(=O)(=O)F)c2)c(Cl)c1`, the GI50 was 2.51 µM and the TGI stood at 16.4 µM.

With `CCN(Cc1ccc(F)cc1)c1ccc(CO)c(Br)c1`, the GI50 was 0.0224 µM and the TGI came out at 0.0608 µM.

Regarding `Clc1nc(Cl)nc(Nc2cccc3ccccc23)n1`, the GI50 is 52.1 µM and the TGI is above 100 µM.

In the case of `CC1CCN(C(=O)OCc2nc3nc(Cl)nc(N4CCOCC4)c3[nH]2)CC1`, the GI50 is 0.715 µM and the TGI amounted to 2.37 µM.

`NCCc1cc(O)c(O)cc1O`: the GI50 is 20.7 µM and the TGI amounted to 97.8 µM.

Regarding `Cc1ccc(Nc2oc(-c3ccccc3)nc2[P+](c2ccccc2)(c2ccccc2)c2ccccc2)cc1`, the GI50 is 0.266 µM and the TGI worked out at 0.895 µM.

`Cn1c(Nc2ccc(C(F)(F)F)cc2)nc2cc(Oc3ccnc(-c4ncc(C(F)(F)F)[nH]4)c3)ccc21`: the GI50 was 0.127 µM and the TGI was 11.4 µM.

Turning to `O=C1CCC/C=C\C[C@H]2C=CC(=O)/C2=C/C[C@H](C/C=C\CC(F)(F)F)O1`, the GI50 was 0.521 µM and the TGI worked out at 2.51 µM.

For the molecule `CN(C)C(=S)Sc1ccc([N+](=O)[O-])cc1[N+](=O)[O-]`, the GI50 is 2.12 µM and the TGI amounted to 5.78 µM.

For `COc1ccc(C(O)(CCC(C)C)C(CN2CCOCC2)c2ccc(Cl)cc2)cc1` (stereo not drawn), the GI50 is 7.43 µM and the TGI was 23.4 µM.

For the molecule `COc1cccc2c1C(=O)c1c(O)c3c(c(O)c1C2=O)C[C@@](O)(/C(C)=N/NC(=O)c1ccc(Cl)cc1)C[C@@H]3OC1CC(N)C(O)C(C)O1` (stereo partly drawn), the GI50 was 0.174 µM and the TGI was 0.495 µM.

`CN(C)CCC(=O)C(=Cc1ccc(O)cc1)C(=O)CCN(C)C`: the GI50 was 26.8 µM and the TGI was 75.2 µM.

For the molecule `CC(C)=CCc1cc(O)cc2c1OC(C=C(C)C)C1=C2C(=O)C2=C(C1=O)S(=O)(=O)CCN2` (stereo not drawn), the GI50 is 2.68 µM and the TGI stood at 8.24 µM.

Turning to `CCOC(=O)c1c(-c2ccc(OC)cc2)c(C#N)c2c(C#N)c(N)nn2c1N`, the GI50 was 2.08 µM and the TGI turned out to be 6.86 µM.

Consider `CN1CC[C@@H](c2c(O)cc(O)c3c(=O)cc(-c4ccc(C(F)(F)F)cc4Cl)oc23)[C@@H]1CO`, for which the GI50 was 12.2 µM and the TGI is 29.6 µM.

In the case of `C#Cc1nc(Nc2cc(C)[nH]n2)c2ccccc2n1`, the GI50 is 0.184 µM and the TGI turned out to be 0.45 µM.

Consider `Cc1nc2cc(Nc3nc(Nc4ccc(F)cc4)nc(-c4cccs4)n3)ccc2n1Cc1ccccc1`, for which the GI50 is 3.62 µM and the TGI was 35.4 µM.

`COc1cc(/C=C/C(=O)c2cccc(-n3cc(-c4ccc(Cl)cc4)[nH]c3=O)c2)ccc1O`: the GI50 is 3.12 µM and the TGI turned out to be 19.2 µM.

`COC(=O)c1ccc2c(c1)/C(=C\c1cc(Br)c(O)c(Br)c1)C(=O)N2`: the GI50 is 6.09 µM and the TGI was above 22 µM.

On to `O=S(=O)(Nc1ccc(Cl)cc1Cl)c1ccc(-c2cnc(C3CC3)o2)cc1`, for which the GI50 is 0.339 µM and the TGI worked out at 2.9 µM.

On to `BrCc1cccc(C[P+](c2ccccc2)(c2ccccc2)c2ccccc2)c1`, for which the GI50 is 2.25 µM and the TGI came out at 8.36 µM.

`Cn1cc(-c2csc(-c3c[nH]c4ccc(Br)cc34)n2)c2cnccc21`: the GI50 is 1.68 µM and the TGI came to 3.56 µM.

As to `CC(C)OC(=O)[C@H](C)NP(=O)(OC[C@H]1O[C@@H](n2ccc(=O)[nH]c2=O)[C@](C)(F)[C@@H]1O)Oc1ccccc1` (stereo partly drawn), the GI50 was above 100 µM and the TGI was above 100 µM.

With `O=C(NNc1ccccc1)C(=O)NNc1ccccc1`, the GI50 was above 100 µM and the TGI was above 100 µM.

With `Nc1ccn(C2OC(CO)C(O)C2O)c(=O)n1` (stereo not drawn), the GI50 is above 61.1 µM and the TGI is above 100 µM.

`CN(C)c1ccc(N=Nc2ccccn2)c(O)c1`: the GI50 was 0.204 µM and the TGI worked out at 0.912 µM.

For `Cc1ccc2c(C3C(C#N)=C(N)Oc4cc5ccccc5cc43)cc(=O)oc2c1` (stereo not drawn), the GI50 is 0.925 µM and the TGI came to 67.1 µM.

Turning to `CSc1nc(NC2OC(COC(C)=O)C(OC(C)=O)C(OC(C)=O)C2OC(C)=O)c(N=CC=Nc2c(NC3OC(COC(C)=O)C(OC(C)=O)C(OC(C)=O)C3OC(C)=O)nc(SC)n(C)c2=O)c(=O)n1C` (stereo not drawn), the GI50 was 39.4 µM and the TGI was 50 µM.

Regarding `COc1ccc(-c2nsc3c2NC(=O)CC3c2cccc(OC)c2)cc1` (stereo not drawn), the GI50 is 0.395 µM and the TGI was determined as 3.97 µM.

On to `Cn1c(=O)c(Oc2ccc(F)cc2)cc2cnc(NC3CCOCC3)nc21`, for which the GI50 is above 25 µM and the TGI was above 25 µM.

Consider `CS(=O)(=O)Nc1cc(-c2ccc3ncnc(Nc4c(Cl)ccc5c4OCO5)c3c2)cnc1Cl`, for which the GI50 is 0.128 µM and the TGI is 0.454 µM.

On to `Cc1cc(N(CCCNc2ccnc3cc(Cl)ccc23)Cc2ccc3c(c2)OCO3)nc(N2CCOCC2)n1`, for which the GI50 is 0.202 µM and the TGI worked out at 0.562 µM.

Regarding `O=[P@@]1(c2ccccc2)O[C@H](COCc2ccccc2)[C@@H](OCc2ccccc2)[C@H](OCc2ccccc2)[C@H]1NCc1ccccc1`, the GI50 was 3.06 µM and the TGI was determined as 12.6 µM.

On to `CCc1ccc(/C=C/c2ccc(O)c3ncccc23)[n+](C)c1`, for which the GI50 is 0.539 µM and the TGI was above 36.5 µM.

The record behind these values is PubChem BioAssay (NCI).
